Holding throughout (type): biochemical
For test [1], the target named is T1, Pyruvate decarboxylase from Saccharomyces cerevisiae (Saccharomyces cerevisiae, UniProt P06169).
T1 construct: made in house; host or cells: E. coli
T1 sequence (P06169 2-563 limits assumed): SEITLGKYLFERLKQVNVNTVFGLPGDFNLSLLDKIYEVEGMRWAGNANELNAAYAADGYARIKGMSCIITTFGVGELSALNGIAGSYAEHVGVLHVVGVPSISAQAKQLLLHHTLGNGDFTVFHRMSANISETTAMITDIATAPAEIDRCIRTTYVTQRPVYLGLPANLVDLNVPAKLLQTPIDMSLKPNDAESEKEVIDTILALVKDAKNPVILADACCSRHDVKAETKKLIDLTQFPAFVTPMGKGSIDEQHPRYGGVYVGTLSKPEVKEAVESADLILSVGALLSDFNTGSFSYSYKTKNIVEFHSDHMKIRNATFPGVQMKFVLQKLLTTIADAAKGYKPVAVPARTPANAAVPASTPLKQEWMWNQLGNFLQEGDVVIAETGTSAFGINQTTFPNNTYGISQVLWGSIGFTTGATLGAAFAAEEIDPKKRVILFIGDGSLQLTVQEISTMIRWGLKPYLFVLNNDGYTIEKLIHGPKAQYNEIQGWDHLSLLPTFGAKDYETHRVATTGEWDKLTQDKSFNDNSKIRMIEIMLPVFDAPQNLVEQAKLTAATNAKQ
Kind of test: Inactivation of pyruvate decarboxylase (PDC). On the procedure: Pyruvate decarboxylase from Saccharomyces cerevisiae was overexpressed in E. coli (Baburina et al., 1994), then purified according to Farrenkopf & Jordan (1992). It was assayed spectrophotometrically by coupling to alcohol dehydrogenase (Holzer et al., 1960).

For test [2], the target named is T2, Pyruvate oxidase from Lactobacillus plantarum (Lactiplantibacillus plantarum, UniProt P37063).
T2 construct: purchased Boehringer Mannheim (a gift, not bought)
T2 sequence (P37063 1-603): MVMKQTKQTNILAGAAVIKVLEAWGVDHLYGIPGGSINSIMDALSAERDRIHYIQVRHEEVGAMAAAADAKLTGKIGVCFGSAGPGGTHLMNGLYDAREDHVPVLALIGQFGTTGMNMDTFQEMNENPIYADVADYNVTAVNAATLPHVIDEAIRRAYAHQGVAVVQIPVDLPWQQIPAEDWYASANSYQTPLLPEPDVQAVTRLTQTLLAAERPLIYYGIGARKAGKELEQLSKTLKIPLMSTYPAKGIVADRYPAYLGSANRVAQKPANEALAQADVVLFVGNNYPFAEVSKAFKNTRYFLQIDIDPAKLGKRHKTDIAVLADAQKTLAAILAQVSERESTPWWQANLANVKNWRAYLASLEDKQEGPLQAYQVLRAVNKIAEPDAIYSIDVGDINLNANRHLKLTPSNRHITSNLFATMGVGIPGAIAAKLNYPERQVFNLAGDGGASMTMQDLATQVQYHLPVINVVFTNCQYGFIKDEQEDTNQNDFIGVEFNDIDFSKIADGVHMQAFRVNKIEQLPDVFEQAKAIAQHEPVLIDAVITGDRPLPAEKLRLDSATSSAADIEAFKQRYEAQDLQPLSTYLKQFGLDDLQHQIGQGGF
The experiment in a line: Inactivation of pyruvate oxidase (POX). The note with it: for kinact/KI: read-out: kc/Ki,c (converted). As to the method: Pyruvate oxidase from Lactobacillus plantarum was a gift from Boehringer Mannheim and was assayed according to the manufacturer's instructions at 25° C. by measuring the rate of 4-quinonimine production from H2 O2, 3,5-dichlorophenolsulfonic acid and 4-aminoantipyrine in the presence of horseradish peroxidase, at 546 nm, using a Cobas-Bio (Roche Diagnostics, Somerville, N.J.) automated centrifugal analyzer. The assay reaction mixture (total vol. 0.25 mL) contained: 40 mM sodium pyruvate; 50 mM potassium phosphate buffer, pH 6.5 with 10% (v/v) glycerol; 6.8 mM 3,5-dichlorophenolsulfonic acid; 0.03% of 4-aminoantipyrine; and 5u/mL of horseradish peroxidase. The reaction was initiated by adding POX.

In a further test the target is PDHc (Escherichia coli, UniProt P0AFG8). Kind of test: Steady-state kinetics of PDHc, Km / [S]0.5 for pyruvate. The note with it: 3-lip PDHc; 0.22 mM without reagent. More on the design: made in house; host or cells: E. coli JRG1342 (PDHc null), Ptac plasmid pGS523. On the procedure:
Activity and related measurements on PDHc. The overall enzymatic reaction of the PDH complex was assayed using a Varian DMS 300 spectrophotometer or the Cobas Bio (Roche Diagnostics, Somerville, N.J.) automated centrifugal analyzer, monitoring the pyruvate-dependent reduction of NAD^+ at 340 nm. The reaction medium contained in 1 mL (DMS 300) or 0.25 mL (Cobas-Bio) test volume: 0.1 M Tris-HCl, pH 8.0; 1 mM MgCl2; 2 mM sodium pyruvate; 2.5 mM NAD^+; 0.052-0.2 mM coenzyme A; 0.2 mM ThDP; and 2.6 mM DTT at 27° C. The reaction was initiated either by adding enzyme to a mixture of all other components, or by adding CoA.
The Michaelis-Menten constants (Km) for native PDHc and PDHc treated with 2-oxo-3-butynoic acid and 2-oxo-3-heptynoic acid were obtained by fitting steady-state rates at different pyruvate concentrations to the Hill equation and the logarithmic form of the Hill equation using the Delta Graph (Pro4) computer program.

Setting [3] is: PDC, catalytic site, read-out: Ki,c.

The values that follow come from patent US6204220A, “Substituted 2-oxo-3-alkynoic acids and methods of use thereof” (Rutgers, The State University of New Jersey, priority 1999, dated 2001).

Where two headings read alike, the source gives them in different places.

With `C#CC(=O)C(=O)O` [2-oxo-3-butynoic acid, 2-Oxo-3-butynoic acid], the “inhibition / inactivation of PDC (in words)” value in test [1] is “irreversibly inactivates”. For the same compound, the figures for the saturation by inhibitor result in test [1] (PDC) and in test [2] (POX) were “no” and “yes”, respectively. Further, the Ki is 2110 µM in test [1] (setting [3]); 1100 µM in test [1] (PDC, read-out: Ki); 951 µM in test [2] (POX, read-out: Ki,c). In addition, the kinact was 0.0009 s⁻¹ in test [1] (PDC, read-out: first order rate constant of inactivation (ki) (converted)); 0.00141 s⁻¹ in test [1] (PDC, read-out: ki (converted)); 0.00447 s⁻¹ in test [2] (POX, read-out: ki (converted)). Besides, the kinact/KI was 0.667 M⁻¹ s⁻¹ in test [1] (read-out: kc/Ki,c, PDC); 0.817 M⁻¹ s⁻¹ in test [1] (read-out: ki/Ki, PDC); 4.7 M⁻¹ s⁻¹ in test [2] (POX). Also, the “inhibition / inactivation of POX (in words)” value in test [2] is given as “irreversibly inactivates”. On PDHc, the “[S]0.5 for pyruvate in the presence of / after treatment with inhibitor” value was 0.262 ± 0.069 mM.
As for `CCCC#CC(=O)C(=O)O` [2-oxo-3-heptynoic acid, 2-Oxo-3-heptynoic acid], the “inhibition / inactivation of PDC (in words)” value in test [1] was “inhibit”. In addition, the figures for the saturation by inhibitor result in test [1] (PDC), in test [1] (PDC (+50 mM pyruvamide)) and in test [2] (POX) were “yes”, “yes” and “no”, respectively. Besides, the Ki in test [1] (PDC (+50 mM pyruvamide), read-out: Ki,c) was found to be 59.7 µM; in test [1] (PDC (+50 mM pyruvamide), read-out: Ki,r), 382 µM; in test [1] (setting [3]), 447 µM; in test [1] (PDC, regulatory site, read-out: Ki,r) it was 921 µM. Further, the kinact in test [1] (PDC (+50 mM pyruvamide), read-out: ki (converted)) was 0.00523 s⁻¹; in test [1] (PDC, read-out: ki (converted)) it was 0.01 s⁻¹. Further, the kinact/KI in test [1] (read-out: kc/Ki,c, PDC) is 22.5 M⁻¹ s⁻¹; in test [1] (read-out: kc/Ki,c, PDC (+50 mM pyruvamide)) it was 87.7 M⁻¹ s⁻¹; in test [2] (POX, from linear portion at high inhibitor concentrations (d)), 0.32 M⁻¹ s⁻¹; in test [2] (POX, from linear portion at low inhibitor concentrations (c)), 0.0615 M⁻¹ s⁻¹. Further, the “inhibition / inactivation of POX (in words)” value in test [2] is given as “inhibit”. For the same compound, the “[S]0.5 for pyruvate in the presence of / after treatment with inhibitor” value on PDHc turned out to be 0.234 ± 0.025 mM.
